From patent US20150037372A1, “pH-Responsive High-Density Lipoprotein-Like Particle Complex” (RESEARCH & BUSINESS FOUNDATION SUNGKYUNKWAN UNIVERSITY, priority 2012, published 2015)
Values joined by “and” are separate entries in the source; they are usually repeats but may differ in a detail not shown here. Identical values can stand only once.

What was measured:
[1] = system: colorectal cancer cell line Caco-2; experiment: MTT cell viability assay, 72 hours; format: cell-based; details: Caco-2, overexpresses SR-B1, 72 hours
Protocol: (§1) The MTT assay was performed in the following manner: First, an MTT concentrate obtained by dissolving 3-(4,5-dimethyl-2-thiazolyl)-2,5-diphenyl-2H-tetrazolium bromide (MTT, Calbiochem) in PBS at a concentration of 5 mg/mL was filtered and diluted (10%) to prepare an MTT solution. Meanwhile, the medium and the drug were removed from the cells treated with the drug or the drug-encapsulating apoA-I, and then 100 μL of the prepared MIT solution was seeded into each well and allowed to react at 37° C. in 5% CO2 for 3 hours. After completion of the reaction, the medium and the MTT solution were removed, and 100 μL of 100% DMSO was seeded into each well and allowed to react at room temperature for 20 minutes under a light-shielded condition. After completion of the secondary reaction, the absorbance of the sample at 570 nm was measured using a spectrophotometer (Spectra M2, Molecular device), and the measured value was substituted into the following equation to determine cell viability: […]
(§2) In addition, the cancer cells were treated with free EpoB or the EpoB-encapsulating apoA-I at various EpoB concentrations for 72 hours, and the cell viability for each drug was measured using an MTT (3-(4,5-dimethylthiazol-2-yl)-2,5-diphenyltetrazolium bromide) assay. […]

[2] = system: breast cancer cell line ZR-75-1; experiment: MTT cell viability assay, 72 hours; format: cell-based; details: ZR-75-1, overexpresses SR-B1, 72 hours
Protocol: as §1, §2

ICR mice [3] = experiment: Primary in vivo test using apoA-I with endotoxin content of more than 10,000 EU/mg (Example 7-2); details: for body weight loss / ALT / AST / Liver (%): endotoxin-containing apoA-I test; for ALT / AST: serum; for Liver (%): weight of liver relative to body weight
Protocol: (§3) A solution containing the drug Epothilone B (EpoB) was sonicated in the presence of a surfactant (sodium cholate) to encapsulate the EpoB in micelles composed of the surfactant. Then, apoA-I was added to and mixed with the sonicated solution while the concentration of the surfactant was lowered below its critical micelle concentration by dilution. The remaining surfactant was removed by Bio-bead, and the remaining solution was subjected to centrifugation and size exclusion chromatography, thereby preparing an EpoB-encapsulating apoA-I (hereinafter referred to as ‘EpoB-rHDL’).
(§4) EpoB was dissolved in poly ethylene glycol 300 (PEG 300) and then diluted so that the final concentration of PEG 300 was 30% (v/v). In addition, 30% PEG 300 that is a medium for Epothilone B, and apoA-I were selected as negative controls.
(§5) Twenty-eight (seven per group) 6-week-old female ICR mice were purchased from Orientbio Inc. (Korea). The mice were subjected to veterinary inspection for general health conditions and were acclimated to the laboratory environment for 1 week. An animal test was performed in the Laboratory Animal Research Center, Sungkyunkwan University.
(§6) The test material was administered into the tail vein of the grouped ICR mice at a dose of 100 μL once a week for 4 weeks. To verify the toxicity and safety of the test material, the concentration of EpoB encapsulated in apoA-I was measured, and the poB-encapsulating apoA-I or the free EpoB was administered at a dose higher than the maximum tolerated dose of EpoB. For the first 2 weeks, the test material was administered to the ICR mice at a dose of 10 mg/kg, which corresponds four times the maximum tolerated dose of EpoB, and for the next 2 weeks, it was administered at a high EpoB dose of 81 mg/kg. The control apoA-I was administered at a dose corresponding to the concentration of apoA-I in the EpoB-encapsulating apoA-I.
(§7) To observe changes in the body weight of the mice during the test period, the body weight of the mice was measured every day after the start of the test, and diarrhea, hair loss and quadriplegia as the suspected side effects of epoB were observed.
(§8) For liver toxicity analysis, upon the death of the test animals or at the end of the test, the animals were anesthetized with a mixture of Zoletil and Rompun, and then sera were obtained by blood collection from the abdominal aorta. Alanine transferase (ALT) and aspartate transaminase (AST) in the sera were analyzed by an automatic chemistry analyzer.
(§9) Upon the death of the test animals or at the end of the test, the animals were anesthetized with a mixture of Zoletil and Rompun. Next, the liver was harvested and weighed, and the percentage of the weight of the liver relative to the body weight was comparatively analyzed. In addition, the stomach was harvested and observed to the naked eye.
In a primary test, an EpoB-encapsulating apoA-I was prepared using an apoA-I having an endotoxin content of more than 10,000 EU/mg and was administered to ICR mice once a week for 4 weeks.

ICR mice [4] = experiment: In vivo safety test with endotoxin-purified apoA-I (Example 7-3)
Protocol: as §3, §4, §5, §6, §7, §8, §9
Using an apoA-I purified to have an endotoxin content of 5-10 EU/mg, an EpoB-encapsulating apoA-I was prepared according to the method described in Example 7-1(1).
EpoB and the EpoB-encapsulating apoA-I were administered at doses of 10 mg/kg and 81 mg/kg, which are higher than the maximum tolerated dose of EpoB.

[5] = high dose 81 mg/kg, week 3 and 4
[6] = each ICR mouse (No. 1-7), * raised by hemolysis, listed as apoA-1
[7] = group average (total), hemolysis values excluded

Question: For C/C(=C\c1csc(C)n1)[C@@H]1C[C@@H]2O[C@]2(C)CCC[C@H](C)[C@H](O)[C@@H](C)C(=O)C(C)(C)[C@@H](O)CC(=O)O1 [EpoB, Epothilone B, reference compound], which “cell viability compared to treatment with the EpoB-encapsulating apoA-I” value [1] is on record?
Answer: higher cell viability

Question: And the “cell viability compared to treatment with the EpoB-encapsulating apoA-I” value [2]?
Answer: higher cell viability

Question: What about the survival rate (ICR mice [3]; 22 days after the start of administration, tail vein once a week, endotoxin-containing apoA-I) of the same molecule?
Answer: 100%

Question: What about the body weight loss (ICR mice [3]) of the same molecule?
Answer: showed a body weight loss

Question: What about the ALT (ICR mice [3]) of the same molecule?
Answer: 18.1 ± .38 U/L

Question: What about the AST (ICR mice [3]) of the same molecule?
Answer: 45.6 ± 9.3 U/L

Question: And the “Liver (%)” value (ICR mice [3])?
Answer: 4.7 ± 0.3%

Question: And the “adverse effects in appearance examination” value (ICR mice [4]; 10 mg/kg at week 1 and week 2)?
Answer: no adverse effects were observed

Question: And the “gastric hypersensitivity caused by abdominal lymphadenopathy” value (ICR mice [4]; autopsy)?
Answer: observed in the control group

Question: And the “Liver (%)” value (ICR mice [4]; each ICR mouse (No. 1-7))?
Answer: 3.45% and 4.19% and 4.85% and 6.48% and 3.79% and 5.12% and 4.33%

Question: And the hair loss (ICR mice [4]; [5])?
Answer: hair loss occurred

Question: What about the quadriplegia (ICR mice [4]; [5]) of the same molecule?
Answer: quadriplegia

Question: What about the “survival of the mice” value (ICR mice [4]; [5]) of the same molecule?
Answer: dead at week 3 and week 4

Question: What about the body weight loss (ICR mice [4]; high dose 81 mg/kg, week 3 and 4, EpoB values are of individual animals, 81 mg/kg) of the same molecule?
Answer: about 25% and 7-17% and about 11% and 11.5%

Question: And the “decrease of AST/ALT ratio compared to control group administered with EpoB” value (ICR mice [4]; mouse, in vivo)?
Answer: about 47%

Question: What does the source list for “apoA-I: recombinant His-tagged human apolipoprotein A-I, 28 kDa, 243 amino acids; carrier protein and negative control”?
Answer: body weight loss (ICR mice [3]): higher body weight loss; toxicity (ICR mice [3]; once a week for 4 weeks, apoA-I with endotoxin more than 10,000 EU/mg): toxicity was observed; ALT (ICR mice [3]): 34.4 ± 16.9 U/L; AST (ICR mice [3]): 52.9 ± 13.2 U/L; Liver (%) (ICR mice [3]): 6 ± 1.1%; ALT (ICR mice [4]; [6]): 27 U/L and 25 U/L and 29 U/L and 21 U/L and 19 U/L and 15 U/L and 16 U/L; AST (ICR mice [4]; [6]): 64 U/L and 73 U/L and 56 U/L and 48 U/L and 69 U/L and 41 U/L and 49 U/L; AST/ALTT (ICR mice [4]; [6]): 2.37 and 2.92 and 1.93 and 2.29 and 3.63 and 2.73 and 3.06; Liver (%) (ICR mice [4]; each ICR mouse (No. 1-7), listed as apoA-1): 3.83% and 3.55% and 4.87% and 3.42% and 4.03% and 5% and 4.13%; Liver (%) (ICR mice [4]; group average (total)): 4.12 ± 0.57%; ALT (ICR mice [4]; [7]): 21.71 ± 5.03 U/L; AST (ICR mice [4]; [7]): 57.14 ± 11.03 U/L; AST/ALT (ICR mice [4]; [7]): 2.70 ± 0.52; survival, body weight change and hair loss (ICR mice [4]; high dose of about 266 mg/kg): did not affect the survival, body weight change and hair loss
